Consider one compound from PMC5746379 (2017).

For experiment [1], the system named is P2 (DNA, G4) GGGCGGGGAGGGGGG
Description: WaterLOGSY 1H NMR. The note with it: 298 K; water with 10% D2O.

Experiment [2] concerns P1 (DNA, G4) GGGCGGTGGGAGGGGGGTGGTGGG
Description: CD melting. The note with it: 1:3 ratio P1-M2; Tm ~79 °C with and without M2; buffer not stated.

Experiment [3] relates to P2 (DNA, G4) GGGCGGGGAGGGGGG
As to the kind of experiment: fluorescence titration of M2 (emission shift Δλ). The note with it: excitation 345 nm; buffer not stated.

For experiment [4], the system named is P1 (DNA, G4) GGGCGGTGGGAGGGGGGTGGTGGG
As to the kind of experiment: absorption, fluorescence titration, WaterLOGSY NMR. The note with it: buffer and highest concentration not stated.

Usually KD stands for the constant that tells how readily two partners part at equilibrium.

Consider `CN(CCC#N)c1ccc(C=NCCCN=Cc2ccc(N(C)CCC#N)cc2)cc1`, for which the binding result in experiment [1] is listed as “yes”; in experiment [2], “no”; in experiment [4] it was “no”. Moreover, the KD in experiment [3] came to 13.2 µM.
